Where two headings read alike, the source gives them in different places.
Tests used:
[1] = test system: Key Broadleaf Weed and Crop Species; assay: Post-emergent Test II herbicidal activity (Table 5); format: in vivo; details: post-emergence, 336 h, 14 days after application
Method in brief: (§1)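 Injury was rated visually 14 d after treatment on a 0–100% scale against untreated controls. Test compounds, formulated with crop oil concentrate and surfactant and serially diluted down to 1/16× of the top rate, were applied by track sprayer at 187 L/ha onto first- to second-true-leaf seedlings.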

[2] = test system: Key Grass and Sedge Weeds as well as Grass Crops; assay: Post-emergent Test II herbicidal activity (Table 6); format: in vivo; details: post-emergence, 336 h; for pest or weed control at 70 g/ha: application rate 70 g ai/ha; for pest or weed control at 140 g/ha: application rate 140 g ai/ha
Method in brief: as §1

[3] = CYPES: yellow nutsedge (Cyperus esculentus), read-out: Visual Growth Reduction (%) 14 Days After Application, CYPES
[4] = DIGSA: crabgrass (Digitaria sanguinalis), read-out: Visual Growth Reduction (%) 14 Days After Application, DIGSA
[5] = ECHCG: barnyardgrass (Echinochloa crus-galli), read-out: Visual Growth Reduction (%) 14 Days After Application, ECHCG
[6] = ORYSA: rice (Oryza sativa), read-out: Visual Growth Reduction (%) 14 Days After Application, ORYSA
[7] = SETFA: giant foxtail (Setaria faberi), read-out: Visual Growth Reduction (%) 14 Days After Application, SETFA
[8] = SORVU: grain sorghum (Sorghum vulgare), read-out: Visual Growth Reduction (%) 14 Days After Application, SORVU
[9] = TRZSS (wheat, Triticum aestivum), read-out: Visual Growth Reduction (%) 14 Days After Application, TRZSS
[10] = ZEAMX: maize, corn (Zea mays), read-out: Visual Growth Reduction (%) 14 Days After Application, ZEAMX
[11] = Triticum aestivum, TRZSS (wheat), read-out: Visual Growth Reduction (%) 14 Days After Application, TRZSS

Structure (SMILES): C=Cc1c(N)nc(-c2ccc(C#N)cc2F)nc1C(=O)O [Compound 5, 6-Amino-2-(4-cyano-2-fluorophenyl)-5-vinylpyrimidine-4-carboxylic acid]
- melting point: 164 to 168 °C
- pest or weed control at 70 g/ha ([1]; ABUTH: velvetleaf (Abutilon theophrasti), 70 g ai/ha, post-emergent, read-out: Visual Growth Reduction (%) 14 Days After Application ABUTH): 0 to 29%
- pest or weed control at 140 g/ha ([1]; ABUTH: velvetleaf (Abutilon theophrasti), 140 g ai/ha, post-emergent, read-out: Visual Growth Reduction (%) 14 Days After Application ABUTH): 0 to 29%
- pest or weed control at 70 g/ha ([1]; AMARE: redroot pigweed (Amaranthus retroflexus), 70 g ai/ha, post-emergent, read-out: Visual Growth Reduction (%) 14 Days After Application AMARE): 0 to 29%
- pest or weed control at 140 g/ha ([1]; AMARE: redroot pigweed (Amaranthus retroflexus), 140 g ai/ha, post-emergent, read-out: Visual Growth Reduction (%) 14 Days After Application AMARE): 0 to 29%
- pest or weed control at 70 g/ha ([1]; BRSNN: oilseed-rape, canola (Brassica napus), 70 g ai/ha, post-emergent, read-out: Visual Growth Reduction (%) 14 Days After Application BRSNN): 0 to 29%
- pest or weed control at 140 g/ha ([1]; BRSNN: oilseed-rape, canola (Brassica napus), 140 g ai/ha, post-emergent, read-out: Visual Growth Reduction (%) 14 Days After Application BRSNN): 0 to 29%
- pest or weed control at 70 g/ha ([1]; CHEAL: lambsquarters (Chenopodium album), 70 g ai/ha, post-emergent, read-out: Visual Growth Reduction (%) 14 Days After Application CHEAL): 0 to 29%
- pest or weed control at 140 g/ha ([1]; CHEAL: lambsquarters (Chenopodium album), 140 g ai/ha, post-emergent, read-out: Visual Growth Reduction (%) 14 Days After Application CHEAL): 0 to 29%
- pest or weed control at 70 g/ha ([1]; EPHHL: wild poinsettia (Euphorbia heterophylla), 70 g ai/ha, post-emergent, read-out: Visual Growth Reduction (%) 14 Days After Application EPHHL): 0 to 29%
- pest or weed control at 140 g/ha ([1]; EPHHL: wild poinsettia (Euphorbia heterophylla), 140 g ai/ha, post-emergent, read-out: Visual Growth Reduction (%) 14 Days After Application EPHHL): 0 to 29%
- pest or weed control at 70 g/ha ([1]; HELAN: sunflower (Helianthus annuus), 70 g ai/ha, post-emergent, read-out: Visual Growth Reduction (%) 14 Days After Application HELAN): 85 to 94%
- pest or weed control at 140 g/ha ([1]; HELAN: sunflower (Helianthus annuus), 140 g ai/ha, post-emergent, read-out: Visual Growth Reduction (%) 14 Days After Application HELAN): 85 to 94%
- pest or weed control at 70 g/ha ([1]; VIOTR: wild pansy (Viola tricolor), 70 g ai/ha, post-emergent, read-out: Visual Growth Reduction (%) 14 Days After Application VIOTR): 0 to 29%
- pest or weed control at 140 g/ha ([1]; VIOTR: wild pansy (Viola tricolor), 140 g ai/ha, post-emergent, read-out: Visual Growth Reduction (%) 14 Days After Application VIOTR): 0 to 29%
- pest or weed control at 70 g/ha [2, 3]: 0 to 29%
- pest or weed control at 140 g/ha [2, 3]: 0 to 29%
- pest or weed control at 70 g/ha [2, 4]: 0 to 29%
- pest or weed control at 140 g/ha [2, 4]: 0 to 29%
- pest or weed control at 70 g/ha [2, 5]: 0 to 29%
- pest or weed control at 140 g/ha [2, 5]: 0 to 29%
- pest or weed control at 70 g/ha [2, 6]: 0 to 29%
- pest or weed control at 140 g/ha [2, 6]: 0 to 29%
- pest or weed control at 70 g/ha [2, 7]: 0 to 29%
- pest or weed control at 140 g/ha [2, 7]: 0 to 29%
- pest or weed control at 70 g/ha [2, 8]: 0 to 29%
- pest or weed control at 140 g/ha [2, 8]: 0 to 29%
- pest or weed control at 70 g/ha [2, 9]: 0 to 29%
- pest or weed control at 140 g/ha [2, 9]: 0 to 29%
- pest or weed control at 70 g/ha [2, 10]: 0 to 29%
- pest or weed control at 140 g/ha [2, 10]: 0 to 29%

Structure (SMILES): Nc1c(F)c(-c2ccc(OC(F)F)c(F)c2F)nc(C(=O)O)c1Cl [Compound 19]
- melting point: 113 to 115 °C
- pest or weed control at 70 g/ha ([1]; ABUTH: velvetleaf (Abutilon theophrasti), application rate 70 g ai/ha, read-out: Visual Growth Reduction (%) 14 Days After Application, ABUTH): 0 to 29%
- pest or weed control at 140 g/ha ([1]; ABUTH: velvetleaf (Abutilon theophrasti), application rate 140 g ai/ha, read-out: Visual Growth Reduction (%) 14 Days After Application, ABUTH): 0 to 29%
- pest or weed control at 70 g/ha ([1]; AMARE: redroot pigweed (Amaranthus retroflexus), application rate 70 g ai/ha, read-out: Visual Growth Reduction (%) 14 Days After Application, AMARE): 0 to 29%
- pest or weed control at 140 g/ha ([1]; AMARE: redroot pigweed (Amaranthus retroflexus), application rate 140 g ai/ha, read-out: Visual Growth Reduction (%) 14 Days After Application, AMARE): 0 to 29%
- pest or weed control at 70 g/ha ([1]; BRSNN: oilseed-rape, canola (Brassica napus), application rate 70 g ai/ha, read-out: Visual Growth Reduction (%) 14 Days After Application, BRSNN): 0 to 29%
- pest or weed control at 140 g/ha ([1]; BRSNN: oilseed-rape, canola (Brassica napus), application rate 140 g ai/ha, read-out: Visual Growth Reduction (%) 14 Days After Application, BRSNN): 60 to 74%
- pest or weed control at 70 g/ha ([1]; CHEAL: lambsquarters (Chenopodium album), application rate 70 g ai/ha, read-out: Visual Growth Reduction (%) 14 Days After Application, CHEAL): 0 to 29%
- pest or weed control at 140 g/ha ([1]; CHEAL: lambsquarters (Chenopodium album), application rate 140 g ai/ha, read-out: Visual Growth Reduction (%) 14 Days After Application, CHEAL): 0 to 29%
- pest or weed control at 70 g/ha ([1]; EPHHL: wild poinsettia (Euphorbia heterophylla), application rate 70 g ai/ha, read-out: Visual Growth Reduction (%) 14 Days After Application, EPHHL): 0 to 29%
- pest or weed control at 140 g/ha ([1]; EPHHL: wild poinsettia (Euphorbia heterophylla), application rate 140 g ai/ha, read-out: Visual Growth Reduction (%) 14 Days After Application, EPHHL): 30 to 44%
- pest or weed control at 70 g/ha ([1]; HELAN: sunflower (Helianthus annuus), application rate 70 g ai/ha, read-out: Visual Growth Reduction (%) 14 Days After Application, HELAN): 75 to 84%
- pest or weed control at 140 g/ha ([1]; HELAN: sunflower (Helianthus annuus), application rate 140 g ai/ha, read-out: Visual Growth Reduction (%) 14 Days After Application, HELAN): 75 to 84%
- pest or weed control at 70 g/ha ([1]; VIOTR: wild pansy (Viola tricolor), application rate 70 g ai/ha, read-out: Visual Growth Reduction (%) 14 Days After Application, VIOTR): 0 to 29%
- pest or weed control at 140 g/ha ([1]; VIOTR: wild pansy (Viola tricolor), application rate 140 g ai/ha, read-out: Visual Growth Reduction (%) 14 Days After Application, VIOTR): 0 to 29%
- pest or weed control at 70 g/ha [2, 11]: 0 to 29%
- pest or weed control at 140 g/ha [2, 11]: 0 to 29%
- pest or weed control at 70 g/ha [2, 3]: 0 to 29%
- pest or weed control at 140 g/ha [2, 3]: 0 to 29%
- pest or weed control at 70 g/ha [2, 4]: 0 to 29%
- pest or weed control at 140 g/ha [2, 4]: 0 to 29%
- pest or weed control at 70 g/ha [2, 5]: 0 to 29%
- pest or weed control at 140 g/ha [2, 5]: 0 to 29%
- pest or weed control at 70 g/ha [2, 6]: 0 to 29%
- pest or weed control at 140 g/ha [2, 6]: 0 to 29%
- pest or weed control at 70 g/ha [2, 7]: 0 to 29%
- pest or weed control at 140 g/ha [2, 7]: 0 to 29%
- pest or weed control at 70 g/ha [2, 8]: 0 to 29%
- pest or weed control at 140 g/ha [2, 8]: 0 to 29%
- pest or weed control at 70 g/ha [2, 10]: 0 to 29%
- pest or weed control at 140 g/ha [2, 10]: 0 to 29%
